Measurements published in PubChem BioAssay (NCI).
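Tested at 5 concentrations; 48 h exposure; 96-well plates; endpoints linearly interpolated, else capped at highest concentration. TGI marks complete inhibition of growth.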

Legend:
Test in all cases: NCI anticancer screen, dose series, 48 h
M14 melanoma = test system: M14 melanoma
MDA-MB-231 breast = test system: MDA-MB-231 breast
HCC-2998 colon = test system: HCC-2998 colon
HT29 colon = test system: HT29 colon
OVCAR-8 ovarian = test system: OVCAR-8 ovarian
KM12 colon = test system: KM12 colon
SR leukemia = test system: SR leukemia
LOX IMVI melanoma = test system: LOX IMVI melanoma
PC-3 prostate = test system: PC-3 prostate
OVCAR-4 ovarian = test system: OVCAR-4 ovarian
K-562 leukemia = test system: K-562 leukemia
SK-OV-3 ovarian = test system: SK-OV-3 ovarian
TK-10 renal = test system: TK-10 renal
DU-145 prostate = test system: DU-145 prostate
ACHN renal = test system: ACHN renal
SF-539 CNS = test system: SF-539 CNS
SK-MEL-5 melanoma = test system: SK-MEL-5 melanoma
UACC-257 melanoma = test system: UACC-257 melanoma
UACC-62 melanoma = test system: UACC-62 melanoma
NCI-H460 lung = test system: NCI-H460 lung
T-47D breast = test system: T-47D breast
SK-MEL-2 melanoma = test system: SK-MEL-2 melanoma
COLO 205 colon = test system: COLO 205 colon
OVCAR-3 ovarian = test system: OVCAR-3 ovarian
MDA-MB-435 = test system: MDA-MB-435
SF-295 CNS = test system: SF-295 CNS
SN12C renal = test system: SN12C renal
HCT-15 colon = test system: HCT-15 colon
EKVX NSCLC = test system: EKVX NSCLC
HL-60(TB) leukemia = test system: HL-60(TB) leukemia
U251 CNS = test system: U251 CNS
HOP-62 NSCLC = test system: HOP-62 NSCLC
MCF7 breast = test system: MCF7 breast
SNB-75 CNS = test system: SNB-75 CNS
RPMI-8226 leukemia = test system: RPMI-8226 leukemia
A549 NSCLC = test system: A549 NSCLC
SNB-19 CNS = test system: SNB-19 CNS
HS 578T breast = test system: HS 578T breast
NCI-H23 lung = test system: NCI-H23 lung
MDA-N = test system: MDA-N
HOP-92 NSCLC = test system: HOP-92 NSCLC
UO-31 renal = test system: UO-31 renal
SK-MEL-28 melanoma = test system: SK-MEL-28 melanoma
RXF 393 renal = test system: RXF 393 renal
OVCAR-5 ovarian = test system: OVCAR-5 ovarian
A498 renal = test system: A498 renal
NCI-H226 lung = test system: NCI-H226 lung
NCI/ADR-RES ovarian = test system: NCI/ADR-RES ovarian
786-0 renal = test system: 786-0 renal
SF-268 CNS = test system: SF-268 CNS
CAKI-1 renal = test system: CAKI-1 renal
HCT-116 colon = test system: HCT-116 colon
CCRF-CEM leukemia = test system: CCRF-CEM leukemia
MOLT-4 leukemia = test system: MOLT-4 leukemia
IGROV1 ovarian = test system: IGROV1 ovarian
BT-549 breast = test system: BT-549 breast
SW-620 colon = test system: SW-620 colon
MALME-3M melanoma = test system: MALME-3M melanoma
NCI-H522 lung = test system: NCI-H522 lung

SMILES: Cc1c(C(=O)OCc2ccccc2)[n+](=O)c2ccccc2n1[O-]
- TGI (M14 melanoma): > 100 µM
- TGI (MDA-MB-231 breast): 64.8 µM
- TGI (HCC-2998 colon): > 100 µM
- TGI (HT29 colon): > 100 µM
- TGI (OVCAR-8 ovarian): > 100 µM
- TGI (KM12 colon): > 100 µM
- TGI (SR leukemia): 47.3 µM
- TGI (LOX IMVI melanoma): 44.8 µM
- TGI (PC-3 prostate): > 100 µM
- TGI (OVCAR-4 ovarian): 85 µM
- TGI (K-562 leukemia): > 100 µM
- TGI (SK-OV-3 ovarian): > 100 µM
- TGI (TK-10 renal): 84.6 µM
- TGI (DU-145 prostate): 47.8 µM
- TGI (ACHN renal): > 100 µM
- TGI (SF-539 CNS): > 100 µM
- TGI (SK-MEL-5 melanoma): 53.6 µM
- TGI (UACC-257 melanoma): 56.1 µM
- TGI (UACC-62 melanoma): > 100 µM
- TGI (NCI-H460 lung): > 100 µM
- TGI (T-47D breast): 57.2 µM
- TGI (SK-MEL-2 melanoma): > 100 µM
- TGI (COLO 205 colon): 37.6 µM
- TGI (OVCAR-3 ovarian): > 100 µM
- TGI (MDA-MB-435): 75.2 µM
- TGI (SF-295 CNS): > 100 µM
- TGI (SN12C renal): > 100 µM
- TGI (HCT-15 colon): > 100 µM
- TGI (EKVX NSCLC): 91.5 µM
- TGI (HL-60(TB) leukemia): 77.4 µM
- TGI (U251 CNS): > 100 µM
- TGI (HOP-62 NSCLC): 61.2 µM
- TGI (MCF7 breast): > 100 µM
- TGI (SNB-75 CNS): 56.5 µM
- TGI (RPMI-8226 leukemia): 30.5 µM
- TGI (A549 NSCLC): 70.7 µM
- TGI (SNB-19 CNS): > 100 µM
- TGI (HS 578T breast): 72.9 µM
- TGI (NCI-H23 lung): 95.7 µM
- TGI (MDA-N): > 100 µM
- TGI (HOP-92 NSCLC): 13.4 µM
- TGI (UO-31 renal): 86.3 µM
- TGI (SK-MEL-28 melanoma): > 100 µM
- TGI (RXF 393 renal): 69.1 µM
- TGI (OVCAR-5 ovarian): > 100 µM
- TGI (A498 renal): 94.3 µM
- TGI (NCI-H226 lung): 57.1 µM
- TGI (NCI/ADR-RES ovarian): 93.8 µM
- TGI (786-0 renal): > 100 µM
- TGI (SF-268 CNS): > 100 µM
- TGI (CAKI-1 renal): 80.5 µM
- TGI (HCT-116 colon): 65.6 µM
- TGI (CCRF-CEM leukemia): 0.199 µM
- TGI (MOLT-4 leukemia): 43 µM
- TGI (IGROV1 ovarian): 34.1 µM
- TGI (BT-549 breast): > 100 µM

SMILES: COc1cc(C=O)cc(/C=N/N=C/c2ccccc2O)c1O
- TGI (M14 melanoma): 56.8 µM
- TGI (MDA-MB-231 breast): 76.4 µM
- TGI (HT29 colon): > 100 µM
- TGI (KM12 colon): > 100 µM
- TGI (SR leukemia): 51.2 µM
- TGI (LOX IMVI melanoma): 54.5 µM
- TGI (PC-3 prostate): 85.9 µM
- TGI (OVCAR-4 ovarian): > 100 µM
- TGI (SK-OV-3 ovarian): 59.7 µM
- TGI (TK-10 renal): > 100 µM
- TGI (DU-145 prostate): > 100 µM
- TGI (SW-620 colon): > 100 µM
- TGI (ACHN renal): 67.4 µM
- TGI (SF-539 CNS): 34.2 µM
- TGI (SK-MEL-5 melanoma): > 100 µM
- TGI (UACC-257 melanoma): > 100 µM
- TGI (UACC-62 melanoma): > 100 µM
- TGI (NCI-H460 lung): > 100 µM
- TGI (MALME-3M melanoma): 18.1 µM
- TGI (T-47D breast): 28.2 µM
- TGI (SK-MEL-2 melanoma): 47 µM
- TGI (COLO 205 colon): 82.9 µM
- TGI (OVCAR-3 ovarian): 65.9 µM
- TGI (MDA-MB-435): > 100 µM
- TGI (SF-295 CNS): 8.16 µM
- TGI (SN12C renal): 64.4 µM
- TGI (HCT-15 colon): > 100 µM
- TGI (HL-60(TB) leukemia): 0.0201 µM
- TGI (U251 CNS): > 100 µM
- TGI (HOP-62 NSCLC): > 100 µM
- TGI (MCF7 breast): > 100 µM
- TGI (RPMI-8226 leukemia): 45.3 µM
- TGI (A549 NSCLC): > 100 µM
- TGI (NCI-H522 lung): > 100 µM
- TGI (SNB-19 CNS): > 100 µM
- TGI (HS 578T breast): 10.3 µM
- TGI (NCI-H23 lung): 54 µM
- TGI (MDA-N): > 100 µM
- TGI (HOP-92 NSCLC): 39.8 µM
- TGI (UO-31 renal): 99.1 µM
- TGI (SK-MEL-28 melanoma): 73.8 µM
- TGI (RXF 393 renal): > 100 µM
- TGI (A498 renal): > 100 µM
- TGI (NCI-H226 lung): 58.6 µM
- TGI (NCI/ADR-RES ovarian): > 100 µM
- TGI (786-0 renal): 50.6 µM
- TGI (SF-268 CNS): > 100 µM
- TGI (CAKI-1 renal): 49 µM
- TGI (HCT-116 colon): 67.3 µM
- TGI (CCRF-CEM leukemia): 70.3 µM
- TGI (MOLT-4 leukemia): 2.05 µM
- TGI (IGROV1 ovarian): > 100 µM
- TGI (BT-549 breast): 52.6 µM

SMILES: O=C(NCCc1[nH]nc2c1C(=O)C=C(Nc1ccccc1)C2=O)OCc1ccccc1
- TGI (M14 melanoma): > 100 µM
- TGI (MDA-MB-231 breast): > 100 µM
- TGI (HT29 colon): > 100 µM
- TGI (OVCAR-8 ovarian): > 100 µM
- TGI (KM12 colon): > 100 µM
- TGI (SR leukemia): > 100 µM
- TGI (LOX IMVI melanoma): > 100 µM
- TGI (PC-3 prostate): > 100 µM
- TGI (OVCAR-4 ovarian): > 100 µM
- TGI (SK-OV-3 ovarian): > 100 µM
- TGI (TK-10 renal): > 100 µM
- TGI (DU-145 prostate): > 100 µM
- TGI (SW-620 colon): > 100 µM
- TGI (ACHN renal): > 100 µM
- TGI (SF-539 CNS): > 100 µM
- TGI (SK-MEL-5 melanoma): > 100 µM
- TGI (UACC-257 melanoma): > 100 µM
- TGI (UACC-62 melanoma): > 100 µM
- TGI (NCI-H460 lung): > 100 µM
- TGI (T-47D breast): > 100 µM
- TGI (SK-MEL-2 melanoma): > 100 µM
- TGI (COLO 205 colon): > 100 µM
- TGI (OVCAR-3 ovarian): > 100 µM
- TGI (MDA-MB-435): > 100 µM
- TGI (SF-295 CNS): > 100 µM
- TGI (SN12C renal): > 100 µM
- TGI (HCT-15 colon): > 100 µM
- TGI (EKVX NSCLC): > 100 µM
- TGI (HL-60(TB) leukemia): > 100 µM
- TGI (U251 CNS): > 100 µM
- TGI (MCF7 breast): > 100 µM
- TGI (SNB-75 CNS): > 100 µM
- TGI (RPMI-8226 leukemia): > 100 µM
- TGI (A549 NSCLC): > 100 µM
- TGI (NCI-H522 lung): > 100 µM
- TGI (SNB-19 CNS): > 100 µM
- TGI (HS 578T breast): > 100 µM
- TGI (NCI-H23 lung): > 100 µM
- TGI (MDA-N): > 100 µM
- TGI (HOP-92 NSCLC): > 100 µM
- TGI (UO-31 renal): > 100 µM
- TGI (RXF 393 renal): > 100 µM
- TGI (OVCAR-5 ovarian): > 100 µM
- TGI (A498 renal): > 100 µM
- TGI (NCI-H226 lung): > 100 µM
- TGI (NCI/ADR-RES ovarian): > 100 µM
- TGI (786-0 renal): > 100 µM
- TGI (SF-268 CNS): > 100 µM
- TGI (CAKI-1 renal): > 100 µM
- TGI (HCT-116 colon): > 100 µM
- TGI (CCRF-CEM leukemia): > 100 µM
- TGI (MOLT-4 leukemia): > 100 µM
- TGI (IGROV1 ovarian): > 100 µM
- TGI (BT-549 breast): > 100 µM
